In US20240228459A1 (Boundless Bio, Inc., priority 2022, published 2024):

Assays:
Wee1 = Wee1 (Homo sapiens, UniProt P30291); assay: Wee1 pCDK1 activity (known assay); type: cell-based
Procedure: (§1) The Wee1 pCDK1 and PLK1 activities were determined using known assays.

PLK1 = PLK1 (Homo sapiens, UniProt P53350); assay: PLK1 activity (known assay); type: biochemical
Procedure: as §1

Sequence of Wee1 (P30291 whole entry, species assumed): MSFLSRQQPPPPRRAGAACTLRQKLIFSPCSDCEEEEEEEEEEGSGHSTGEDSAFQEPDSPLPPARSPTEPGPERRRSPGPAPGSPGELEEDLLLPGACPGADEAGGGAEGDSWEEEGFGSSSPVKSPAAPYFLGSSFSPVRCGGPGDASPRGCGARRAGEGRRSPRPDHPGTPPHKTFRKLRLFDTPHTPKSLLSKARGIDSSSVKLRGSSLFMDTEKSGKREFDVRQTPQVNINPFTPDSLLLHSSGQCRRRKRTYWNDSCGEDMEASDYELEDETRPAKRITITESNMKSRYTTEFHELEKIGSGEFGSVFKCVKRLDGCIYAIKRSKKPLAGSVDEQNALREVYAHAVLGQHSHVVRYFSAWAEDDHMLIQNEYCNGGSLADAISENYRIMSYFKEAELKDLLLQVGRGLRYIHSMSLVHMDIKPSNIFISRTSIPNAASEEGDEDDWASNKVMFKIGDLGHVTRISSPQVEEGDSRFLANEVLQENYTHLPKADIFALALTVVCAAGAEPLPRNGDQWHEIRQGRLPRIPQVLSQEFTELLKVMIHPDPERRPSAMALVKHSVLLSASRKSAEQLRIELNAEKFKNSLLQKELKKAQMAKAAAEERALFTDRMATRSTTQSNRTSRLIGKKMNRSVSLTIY
Sequence of PLK1 (P53350 whole entry, species assumed): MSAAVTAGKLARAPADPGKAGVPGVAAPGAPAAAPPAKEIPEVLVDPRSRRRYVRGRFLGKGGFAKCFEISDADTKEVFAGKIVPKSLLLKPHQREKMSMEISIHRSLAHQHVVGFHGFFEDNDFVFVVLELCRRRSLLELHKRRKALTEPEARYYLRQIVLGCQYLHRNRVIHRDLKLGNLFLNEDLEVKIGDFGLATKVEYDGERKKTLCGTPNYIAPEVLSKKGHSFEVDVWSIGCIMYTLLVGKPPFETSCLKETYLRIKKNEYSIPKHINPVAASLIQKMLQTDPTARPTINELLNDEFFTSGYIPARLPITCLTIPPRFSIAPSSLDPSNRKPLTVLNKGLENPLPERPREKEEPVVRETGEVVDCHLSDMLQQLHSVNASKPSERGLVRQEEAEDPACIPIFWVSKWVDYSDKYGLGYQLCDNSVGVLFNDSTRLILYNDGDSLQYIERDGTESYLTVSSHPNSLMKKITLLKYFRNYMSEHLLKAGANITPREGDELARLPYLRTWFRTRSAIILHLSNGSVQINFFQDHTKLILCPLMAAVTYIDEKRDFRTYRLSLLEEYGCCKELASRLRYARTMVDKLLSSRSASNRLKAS

Row | SMILES | IC50 (Wee1) [nM] | IC50 (PLK1) [nM]
1 | CCN1CCCc2ccc(Nc3nc(Nc4ccc(N5CCN(C)CC5)cc4)ncc3C#N)nc21 [Example 6, 4-[(8-ethyl-6,7-dihydro-5H-1,8-naphthyridin-2-yl)amino]-2-[4-(4-methylpiperazin-1-yl)anilino]pyrimidine-5-carbonitrile] | 500 to 1000 | –
2 | COCc1cc(Nc2ncc(C#N)c(Nc3cccc(N4CCCC4=O)n3)n2)ccc1N1CCN(C)CC1 [Example 66, 2-[3-(methoxymethyl)-4-(4-methylpiperazin-1-yl)anilino]-4-[[6-(2-oxopyrrolidin-1-yl)-2-pyridyl]amino]pyrimidine-5-carbonitrile] | 250 to 500 | > 1000
3 | Cc1cc(Nc2ncc(C#N)c(Nc3cccc(N4CCCC4=O)n3)n2)cc2c1CN(C)CC2 [Example 73, 2-[(2,8-dimethyl-3,4-dihydro-1H-isoquinolin-6-yl)amino]-4-[[6-(2-oxopyrrolidin-1-yl)-2-pyridyl]amino]pyrimidine-5-carbonitrile] | ≤ 100 | > 1000
4 | CN1CCc2cc(Nc3ncc(C#N)c(Nc4cccc(N5CCOC5=O)n4)n3)ccc2C1 [Example 12, 2-[(2-methyl-3,4-dihydro-1H-isoquinolin-6-yl)amino]-4-[[6-(2-oxooxazolidin-3-yl)-2-pyridyl]amino]pyrimidine-5-carbonitrile] | ≤ 100 | > 1000
5 | CCC1(O)CCc2ccc(Nc3nc(Nc4ccc(N5CCN(C)C6(CC6)C5)cc4)ncc3C#N)nc21 (centres unmarked) [Example 33, 4-[(7-ethyl-7-hydroxy-5,6-dihydrocyclopenta[b]pyridin-2-yl)amino]-2-[4-(4-methyl-4,7-diazaspiro[2.5]octan-7-yl)anilino]pyrimidine-5-carbonitrile] | > 1000 | ≤ 100
6 | CCCC1(O)CCc2ccc(Nc3nc(Nc4ccc(N5CCN(C)CC5)cc4)ncc3C#N)nc21 (centres unmarked) [Example 2, 4-[(7-hydroxy-7-propyl-5,6-dihydrocyclopenta[b]pyridin-2-yl)amino]-2-[4-(4-methylpiperazin-1-yl)anilino]pyrimidine-5-carbonitrile] | ≤ 100 | ≤ 100
7 | CCC1(O)CCc2ccc(Nc3nc(Nc4ccc(N5C6CCC5CN(C)C6)cc4)ncc3C#N)nc21 (single isomer, unassigned) [Example 38] | 250 to 500 | 250 to 500
8 | CCC1(O)CCc2ccc(Nc3nc(Nc4ccc(N5C[C@@H](C)N(C)[C@@H](C)C5)cc4)ncc3C#N)nc21 (mixture of isomers) [Example 53, 4-[(7-ethyl-7-hydroxy-5,6-dihydrocyclopenta[b]pyridin-2-yl)amino]-2-[4-[rac-(3R,5S)-3,4,5-trimethylpiperazin-1-yl]anilino]pyrimidine-5-carbonitrile] | 100 to 250 | ≤ 100
9 | CCC1(O)CCc2ccc(Nc3nc(Nc4ccc5c(c4)CN(C)CC5)ncc3C#N)nc21 (centres unmarked) [Example 29] | 250 to 500 | 100 to 250
10 | CCC1(O)CCc2ccc(Nc3nc(Nc4ccc(C5CCN(C)CC5)c(C)c4)ncc3C#N)nc21 (centres unmarked) [Example 20, 4-[(7-ethyl-7-hydroxy-5,6-dihydrocyclopenta[b]pyridin-2-yl)amino]-2-[3-methyl-4-(1-methyl-4-piperidyl)anilino]pyrimidine-5-carbonitrile] | ≤ 100 | 100 to 250
11 | CN1CCc2ccc(Nc3ncc(C#N)c(Nc4cccc(N5CCCC5=O)n4)n3)cc2C1 [Example 74, 2-[(2-methyl-3,4-dihydro-1H-isoquinolin-7-yl)amino]-4-[[6-(2-oxopyrrolidin-1-yl)-2-pyridyl]amino]pyrimidine-5-carbonitrile] | 100 to 250 | > 1000
12 | Cc1cc(Nc2ncc(C#N)c(Nc3cccc(N4CCCC4=O)n3)n2)cc2c1CNCC2 [Example 77, 2-[(8-methyl-1,2,3,4-tetrahydroisoquinolin-6-yl)amino]-4-[[6-(2-oxopyrrolidin-1-yl)-2-pyridyl]amino]pyrimidine-5-carbonitrile] | 500 to 1000 | –
13 | C[C@@H]1CN(C)CCN1c1ccc(Nc2ncc(C#N)c(Nc3cccc(N4CCCC4=O)n3)n2)cc1 [Example 64, 4-[[6-(2-oxopyrrolidin-1-yl)-2-pyridyl]amino]-2-[4-[(2R)-2,4-dimethylpiperazin-1-yl]anilino]pyrimidine-5-carbonitrile] | 250 to 500 | > 1000
14 | CN1CCC(O)(c2ccc(Nc3ncc(C#N)c(Nc4cccc(N5CCCC5=O)n4)n3)cc2)CC1 [Example 78, 2-[4-(4-hydroxy-1-methyl-4-piperidyl)anilino]-4-[[6-(2-oxopyrrolidin-1-yl)-2-pyridyl]amino]pyrimidine-5-carbonitrile] | > 1000 | > 1000
15 | CCC1(O)CCc2ccc(Nc3nc(Nc4ccc(N5CCN(C6CC6)CC5)cc4)ncc3C#N)nc21 (centres unmarked) [Example 23, 2-[4-(4-cyclopropylpiperazin-1-yl)anilino]-4-[(7-ethyl-7-hydroxy-5,6-dihydrocyclopenta[b]pyridin-2-yl)amino]pyrimidine-5-carbonitrile] | 500 to 1000 | ≤ 100
16 | CCC1(O)CCc2ccc(Nc3nc(Nc4ccc(N5CCN(C(C)=O)C6(CC6)C5)cc4)ncc3C#N)nc21 (centres unmarked) [Example 54, 2-[4-(4-acetyl-4,7-diazaspiro[2.5]octan-7-yl)anilino]-4-[(7-ethyl-7-hydroxy-5,6-dihydrocyclopenta[b]pyridin-2-yl)amino]pyrimidine-5-carbonitrile] | 250 to 500 | ≤ 100
17 | CN1CCC(c2ccc(Nc3ncc(C#N)c(Nc4cccc(N5CCCC5=O)n4)n3)cc2)CC1=O (centres unmarked) [Example 67, 2-[4-(1-methyl-2-oxo-4-piperidyl)anilino]-4-[[6-(2-oxopyrrolidin-1-yl)-2-pyridyl]amino]pyrimidine-5-carbonitrile] | 500 to 1000 | > 1000
18 | CN1CCc2cc(Nc3ncc(C#N)c(Nc4cccc(N5CCCC5=O)n4)n3)ccc2C1 [Example 72, 2-[(2-methyl-3,4-dihydro-1H-isoquinolin-6-yl)amino]-4-[[6-(2-oxopyrrolidin-1-yl)-2-pyridyl]amino]pyrimidine-5-carbonitrile] | ≤ 100 | > 1000
19 | CN1CCc2cc(Nc3ncc(C#N)c(Nc4ccc5c(n4)C(C)(O)CC5)n3)ccc2C1(C)C (centres unmarked) [Example 61, 4-[(7-hydroxy-7-methyl-5,6-dihydrocyclopenta[b]pyridin-2-yl)amino]-2-[(1,1,2-trimethyl-3,4-dihydroisoquinolin-6-yl)amino]pyrimidine-5-carbonitrile] | 250 to 500 | > 1000
20 | CCC1(O)CCc2ccc(Nc3nc(Nc4cc(C)c5c(c4)CCN(C)C5)ncc3C#N)nc21 (centres unmarked) [Example 47, 2-[(2,8-dimethyl-3,4-dihydro-1H-isoquinolin-6-yl)amino]-4-[(7-ethyl-7-hydroxy-5,6-dihydrocyclopenta[b]pyridin-2-yl)amino]pyrimidine-5-carbonitrile] | ≤ 100 | 250 to 500
21 | CCC1(O)CCc2ccc(Nc3nc(Nc4cc(C)c5c(c4)CN(C)CC5)ncc3C#N)nc21 (centres unmarked) [Example 49, 2-[(2,5-dimethyl-3,4-dihydro-1H-isoquinolin-7-yl)amino]-4-[(7-ethyl-7-hydroxy-5,6-dihydrocyclopenta[b]pyridin-2-yl)amino]pyrimidine-5-carbonitrile] | ≤ 100 | ≤ 100
22 | CN1CCN(c2ccc(Nc3ncc(C#N)c(Nc4cccc(-n5ccccc5=O)n4)n3)cc2)CC1 [Example 3, 2-[4-(4-methylpiperazin-1-yl)anilino]-4-[[6-(2-oxo-1-pyridyl)-2-pyridyl]amino]pyrimidine-5-carbonitrile] | 500 to 1000 | –
23 | CCC1(O)CCc2ccc(Nc3nc(Nc4ccc5c(c4)CCN(C)C5(C)C)ncc3C#N)nc21 (single isomer, unassigned) [Example 28] | 250 to 500 | > 1000
24 | CN1CCN(c2ccc(Nc3ncc(C#N)c(Nc4cccc(N5CCCC5)n4)n3)cc2)CC1 [Example 7, 2-[4-(4-methylpiperazin-1-yl)anilino]-4-[(6-pyrrolidin-1-yl-2-pyridyl)amino]pyrimidine-5-carbonitrile] | 100 to 250 | ≤ 100
25 | COCC1CN(C)CCN1c1ccc(Nc2ncc(C#N)c(Nc3cccc(N4CCCC4=O)n3)n2)cc1 (centres unmarked) [Example 69, 2-[4-[2-(methoxymethyl)-4-methyl-piperazin-1-yl]anilino]-4-[[6-(2-oxopyrrolidin-1-yl)-2-pyridyl]amino]pyrimidine-5-carbonitrile] | 250 to 500 | > 1000
26 | CCC1CN(C)CCN1c1ccc(Nc2ncc(C#N)c(Nc3cccc(N4CCCC4=O)n3)n2)cc1 (centres unmarked) [Example 68, 2-[4-(2-ethyl-4-methyl-piperazin-1-yl)anilino]-4-[[6-(2-oxopyrrolidin-1-yl)-2-pyridyl]amino]pyrimidine-5-carbonitrile] | 100 to 250 | > 1000
27 | CCC1(O)CCc2ccc(Nc3nc(Nc4ccc(COC)c(N5CCN(C)CC5)c4)ncc3C#N)nc21 (centres unmarked) [Example 50, 4-[(7-ethyl-7-hydroxy-5,6-dihydrocyclopenta[b]pyridin-2-yl)amino]-2-[4-(methoxymethyl)-3-(4-methylpiperazin-1-yl)anilino]pyrimidine-5-carbonitrile] | 500 to 1000 | 100 to 250
28 | CCC1(O)CCc2ccc(Nc3nc(Nc4ccc(N5CCN(C)CC5)nc4)ncc3C#N)nc21 (centres unmarked) [Example 14, 4-[(7-ethyl-7-hydroxy-5,6-dihydrocyclopenta[b]pyridin-2-yl)amino]-2-[[6-(4-methylpiperazin-1-yl)-3-pyridyl]amino]pyrimidine-5-carbonitrile] | > 1000 | ≤ 100
29 | C[C@H]1CN(C)CCN1c1ccc(Nc2ncc(C#N)c(Nc3ccc4c(n3)C(C)(O)CC4)n2)cc1 (mixture of isomers) [Example 60, 4-[(7-hydroxy-7-methyl-5,6-dihydrocyclopenta[b]pyridin-2-yl)amino]-2-[4-[rac-(2S)-2,4-dimethylpiperazin-1-yl]anilino]pyrimidine-5-carbonitrile] | 500 to 1000 | 500 to 1000
30 | Cc1cc(Nc2ncc(C#N)c(Nc3cccc(N4CCOC4=O)n3)n2)ccc1C1CCN(C)CC1 [Example 11, 2-[3-methyl-4-(1-methyl-4-piperidyl)anilino]-4-[[6-(2-oxooxazolidin-3-yl)-2-pyridyl]amino]pyrimidine-5-carbonitrile] | 100 to 250 | –
